Experimental data as given in a melting point compilation (Tetko et al.; mined from patent text by program, amines drawn as free bases though some values may be those of a salt).

Row | melting point [°C] | SMILES
1 | 275 to 277 | CCc1[nH]n(-c2c(Cl)cc(Cl)cc2Cl)c2nc(Cc3ccc(-c4ccc(OC)cc4)cc3)nc(=O)c1-2
2 | 71 to 74 | O=C(O)c1cc(NC(=O)C(CS)Cc2ccccc2)cc(C(F)(F)F)c1 (centres undefined)
3 | 129 to 135 | CC(C)OC(C)c1nnc(N)s1 (centres undefined)
4 | 130 to 132 | Nc1cnc(Oc2ccc(Cl)c3c2CCCC3)c(Cl)c1
5 | 147 to 148 | COc1ccc2c3c(cn2S(=O)(=O)c2ccc(C)cc2)CC(N=[N+]=[N-])C(=O)c13 (centres undefined)
6 | 137 to 139 | CCCC1(CCC(C)=O)Cc2cc(CC(=O)O)c(Cl)c(Cl)c2C1=O (centres undefined)
7 | 67 to 70 | CCCCOc1ccc(S(=O)(=O)N2CC(NCC(O)c3ccc(O)c(NS(C)(=O)=O)c3)C2)cc1 (centres undefined)
8 | 115 to 117 | Cc1ccc(-c2nc3ccccc3o2)c(F)c1
9 | 160 to 161 | Cc1ccc(-c2cc(C(F)F)nn2-c2ccc(S(N)(=O)=O)c(F)c2)cc1Cl
10 | 132 to 133 | COc1cc(C(C)C)c2c(c1)S(=O)(=O)N(COc1cc(C(F)(F)F)nn1-c1ccccn1)C2=O
11 | 86.5 to 87.5 | COC(=O)CCCCCCCCCCCCCCCCCCCN1C(=O)c2ccccc2C1=O
12 | 67 | CCCCCCCCCCCCCCCCNc1ccc(C(=O)OCC(CO)OC(C)=O)cc1 (centres undefined)
13 | 87 to 88 | CNC(=O)n1nc(Oc2c(F)cc(C(F)(F)F)cc2Cl)cc1C
14 | 87 to 88 | CCOCCc1ccc(OCCN(C(=O)n2ccnc2)c2ncnc(C)c2Cl)c(C)c1
15 | 76.5 to 77.5 | O=Cc1ccc(-c2cc(C(F)(F)F)n(Cc3ccccc3)n2)o1
16 | 234 to 235 | CN(C(=O)c1ccccc1)c1cccc(-c2nc(=O)c3ccccc3s2)n1
17 | 42 to 44 | Brc1cncc(-c2ccccc2)c1
18 | 110 | Cc1ccnc(CN(C(=O)C(C)Cl)c2ccccc2)n1 (centres undefined)
19 | 150 to 152 | Cc1ncsc1CCSc1ccnc(CSc2nc3ccccc3[nH]2)c1C
20 | 73 to 76 | CCCc1c(OCCCCCNC(=O)NCCCCc2cccnc2)ccc(C(C)=O)c1O
21 | 201 to 203 | CC(=O)n1[nH]c(=O)n(-c2ccc(Cl)cc2)c1=O
22 | 135 to 137 | CN(C)/C=C/c1cc(OC2CCN(C(=O)OC(C)(C)C)CC2)ccc1C#N
23 | 235 to 237 | Cc1ccc(-c2ccc(C(=O)Nc3ccc4cc(CN5C(C)(C)CCCC5(C)C)ccc4c3)cc2)cc1
24 | 177 to 178 | CCN1CCCC(NC(=O)c2ccc(Nc3ccnc4c(C(F)(F)F)cccc34)cc2)C1 (centres undefined)

Row | melting point [°C] | SMILES
25 | 253 to 255 | CN1C(=O)C2=C(c3ccc([N+](=O)[O-])cc3)OC(=O)C2=C1c1ccccc1
26 | 108 to 111 | COc1cc(NC(=O)Nc2ccc(C3=CCN(C(=O)Nc4ccc(OCC(O)CO)cc4Cl)CC3)cc2)cc(OC)c1 (centres undefined)
27 | 162 to 163 | Cc1c(NC(=O)c2ccc(-c3ccc(Cl)cc3Cl)cc2F)ccc2cc(CN3CCCC3)cnc12
28 | 208 | NCCc1cccc(N2C(=O)N(c3c(Cl)cccc3Cl)Cc3cnc(Nc4ccccc4)nc32)c1
29 | 85 to 87 | O=C(O)c1ccc(CN([C@@H](CO)c2ccccc2)S(=O)(=O)c2ccc(Cl)cc2)cc1
30 | 240 to 241 | Clc1nc(N2CCCCC2)c2nc(Cl)nc(N3CCCCC3)c2n1
31 | 114 to 115 | Nc1ccc(C(=O)N2CCOCC2)c(N)c1
32 | 130 to 135 | COc1c(C(=O)O)nnn1Cc1ccccc1Cl
33 | 214 to 216 | c1cnc2ccc(Cn3cnc4ccc(-c5cn[nH]c5)nc43)cc2c1
34 | 281 to 282 | C[C@@H](n1cnc2cc(-c3ccc(S(C)(=O)=O)cc3)sc2c1=O)[C@](O)(Cn1cncn1)c1ccc(F)cc1F
35 | 121 to 125 | C=CCNC(=O)c1cc(Cl)c2[nH]ncc2n1
36 | 97 | c1ccc(COc2cc3ccncc3cc2OCc2ccccc2)cc1
37 | 180 to 188 | COc1cc(OC)c(C(=O)N2CCc3cc(O)ccc3C2)cc1OC
38 | 29 to 30 | COC(=O)CCc1cccc(-c2ccccc2)c1
39 | 120 to 122 | COc1ccc2c(c1)C(C#N)c1ccccc1CO2 (centres undefined)
40 | 119 to 120 | CCOC(=O)COc1ccc(NC(=O)OC(C)(C)C)cc1Cl
41 | 129 to 130 | CC(C)(C)Nc1nc(Cl)nc(Cl)n1
42 | 92 to 94 | CC(C)(C)OC(=O)[C@H](CC(=O)c1ccc2oc3ccccc3c2c1)NC(=O)C(F)(F)F
43 | 148 to 149 | Cc1nc2c(O[C@@H]3c4ccccc4C[C@H]3O)cc(C(=O)NC3CC3)cc2n1C (relative stereo)
44 | 214 to 215 | CCOCCCOc1ccc(-c2ccc3c(c2)C=C(C(=O)Nc2ccc(CN(C)C4CCOCC4)cc2)CCS3(=O)=O)cc1
45 | 70 to 72 | CC(F)(F)CCc1ccccc1S(N)(=O)=O
46 | 258 to 259 | O=C(C=c1sc2n(c1=O)Cc1ccccc1N=2)NCc1ccccc1
47 | 52 to 55 | CNC(=O)C#Cc1ccccc1C
48 | 187 to 188 | CCC(CC)NC(=O)Nc1cc(-c2c(-c3ccc(F)c(C)c3)nc3cccnn23)ccn1

Row | melting point [°C] | SMILES
49 | 177 to 178 | COC(=O)C(=O)c1ccc(OCCOc2cc3ccccc3cc2O)cc1
50 | 152 to 154 | O=C(NC(=O)c1ccc(OCCn2ccnc2)cc1)c1ccccc1
51 | 110 to 111 | COc1cc(Cl)cc(Cl)c1C=O
52 | 250 to 251 | NC(=O)c1cc2cc(Cl)ccc2nc1N
53 | 233 to 235 | CCOC(=O)c1c(C2CCNCC2)[nH]c(-c2cccc(C(F)(F)F)c2)c1-c1ccncc1
54 | 62 to 63 | COc1cc(CNC(=S)NC(COC(=O)C(C)(C)C)Cc2ccc(C)c(C)c2)ccc1OCCN (centres undefined)
55 | 126 to 132 | O=C1c2ccccc2C(=O)N1CCCC1c2ccccc2C=Cc2ccccc21
56 | 55.5 to 56.5 | O=Cc1ccc2c(c1)Sc1ccccc1CC2
57 | 150 to 152 | Cn1cc(-c2cnc3c(c2)ncn3Cc2ccc3ncccc3c2)cn1
58 | 172 to 174 | C[C@@H]1S[C@@H](C(=O)Nc2ccc(CN3CCOCC3)cc2)Cc2cc3c(cc2C1=O)OCO3
59 | 166 | COc1ccc(C(CC(=O)Nc2ccc(NC(=O)Nc3ccccc3C)cc2)NC(=O)c2ccc(C(=O)O)cc2)cc1OC (centres undefined)
60 | 139 to 140 | COc1ccccc1Oc1c(NS(=O)(=O)c2ccc(C(C)(C)C)cc2)nc(SC)nc1OCCO
61 | 161 to 162 | CCN(CC)CCC1CCCCN1CCNC(=O)N1c2ccccc2C(=O)Nc2cccnc21 (centres undefined)
62 | 74 | CN(C)Cc1ccc(CSCCNC(=O)NCCCCN(C)CCN(Cc2ccc(F)cc2)c2ccccn2)o1
63 | 238 to 240 | [N-]=[N+]=Nc1cc(=O)n(-c2ccccc2)nc1C1=NCCN1
64 | 142 to 144 | COc1cc(C(=O)C=Cc2cc(-c3cccs3)ccc2OC)ccc1O
65 | 68 to 72 | O=C(c1ccccc1)C1CCN(CCS(=O)c2ccc3[nH]c(=O)oc3c2)CC1 (centres undefined)
66 | 97 to 99 | COCc1c(-c2ccncc2)[nH]c(-c2ccncc2)c1C(=O)OC
67 | 92 to 94 | CCCCCCCCCCCC(=O)C(C)(C)C(=O)Nc1c(OC)cc(OC)cc1OC
68 | 185 to 187 | Cc1cc(C)cc(C(=O)c2c(C(C)C)c(=O)[nH]c(=O)n2Cc2cc(F)nc(F)c2)c1
69 | 49 to 51 | Cc1ccc([N+](=O)[O-])c(OCc2ccccc2)c1
70 | 223 to 226 | O=C(O)C1=Cc2cc(Cl)cc(Cl)c2NC1C(F)(F)F (centres undefined)
71 | 112 to 113 | CCC(CC)Oc1nc(C)nc(Nc2c(C)cc(C)cc2C)c1[N+](=O)[O-]
72 | 174 to 175 | Cc1ccc2c(c1)CC(N1CCN(CCN3CCOC3=O)CC1)c1cc(Cl)ccc1S2 (centres undefined)

Row | melting point [°C] | SMILES
73 | 150 to 165 | CN(C)C(=O)c1nc2n(n1)-c1ccccc1N(c1ccccc1)C2
74 | 118 to 120 | Cc1ccc(C(=O)N2CC3CC2CN3c2nc(-c3ccncc3)cc(=O)n2C)cc1 (centres undefined)
75 | 144 to 145 | COC(=O)c1cc(C=NO)cc([N+](=O)[O-])c1
76 | 188 to 189 | O=C(Oc1ccc(F)cc1)N1CCN2C(=O)OC(c3ccccc3)(c3ccccc3)C2C1 (centres undefined)
77 | 225 to 228 | COc1ccc(C(=O)c2cc3ccncc3[nH]2)cc1
78 | 174 to 177 | O=C(O)c1cc(Br)cnc1Cl
79 | 165 to 166 | CC(C)(C)OC(=O)N1CCN(c2cccc3c(Sc4ccccc4)c[nH]c23)CC1
80 | 47 to 47.5 | CC1CCNC1=C[N+](=O)[O-] (centres undefined)
81 | 130 | CCCC(=O)NN=Cc1ccnc2ccccc12
82 | 222 | Nc1ncc(-c2ccncn2)c(-c2ccco2)n1
83 | 150 to 152 | CSC(=CC(=O)c1cncc(F)c1)SC
84 | 103 to 107 | COC(=O)Cc1ccnc(NC=O)n1
85 | 155 to 156 | COc1ccc([N+](=O)[O-])c2c1oc1ccccc12
86 | 131 to 133 | Cc1ccc(-c2cnc(-c3cc(C(F)(F)F)cs3)s2)s1
87 | 80 | CC(C)(C)OC(=O)NCC(N)c1c[nH]c2cc(Br)ccc12 (centres undefined)
88 | 107 to 108 | CC(C)(CCNS(=O)(=O)c1ccc(Cl)cc1)CC(=O)O
89 | 55 to 58 | CON=C(OC)C(=O)c1nccn1Cc1ccccc1
90 | 126 to 128 | Nc1cc([N+](=O)[O-])ccc1CO
91 | 136 to 138 | CC(=O)Nc1ccccc1N1CCc2cc(Cl)ccc21
92 | 219 to 221 | O=C(Nc1ccc(C(=O)N2Cc3ccc(C(=O)C(Cl)(Cl)Cl)n3Cc3ccccc32)cc1)c1ccccc1C(F)(F)F
93 | 228 to 230 | COc1ccccc1N1CCN(CCn2c(=O)[nH]c3sc(Cl)cc3c2=O)CC1
94 | 150 to 153 | COc1cccc2c1Cc1ccccc1C2(CC(=O)O)CC(=O)O
95 | 120 to 121 | CCC(CC)c1nn(-c2ccc(Br)cn2)cc1CCCOc1c(C)cccc1CC(=O)O
96 | 46 to 47 | CC=Cc1c(C(C)C)nc(C(C)C)c(CO)c1-c1ccc(F)cc1

Row | SMILES | melting point [°C]
97 | CCCN1CC=C(c2cccc3[nH]ccc23)CC1 | 105
98 | Cc1nnc2n1-c1ccc([N+](=O)[O-])cc1C(c1ccccc1F)=NC2(C)C | 195
99 | Cc1c(C2CCC(c3ccccc3)(N(C)C)CC2)n(CC(O)CN(C)C)c2ccccc12 (centres undefined) | 54 to 57
